For experiment [1], the system named is H-69 human SCLC xenografts. Briefly: H-69 human SCLC xenografts in nude mice: tumor growth. The format is in vivo. Conditions: H-69. As for the experimental part: Male nude mice were implanted s.c. with 3 mm^3 pieces of H-69 human SCLC tissue. When tumors reached a volume of approx. 80 mm^3 the mice were divided into 4 experimental groups of 7-8 animals each and received the following treatment for 4 weeks: group I (control), vehicle solution; group 2, Peptide 67 (10 μg/day s.c.); group 3, Peptide 31 (10 μg/day s.c.); group 4, Peptide 72 (10 μg/day s.c.). Tumor volumes were recorded twice a week. At the end of treatment, mice were anesthetized with isoflurane, killed by decapitation, and tumors were excised and weighed. Data are presented as means±S.E. Data were evaluated by one way ANOVA and the Student-Newman-Keuls test.
In general terms: Xenograft models place foreign cells or tissue in a host animal.

Experiment [2] concerns DMS-153 human SCLC xenografts. Put plainly: DMS-153 human SCLC xenografts in nude mice: tumor growth. It is filed as in vivo. Here is the method:
(§1) Male nude mice were implanted s.c. with 3 mm^3 pieces of DMS-153 human SCLC tissue. When tumors reached a volume of approx. 100 mm^3 the mice were divided into 3 experimental groups of 68 animals each and received the following treatment for 6 weeks group 1 (control), vehicle solution; group 2, Peptide 67 (10 μg/day s.c.); group 3, Peptide 31 (10 μg/day s.c.). Tumor volumes were recorded twice a week. At the end of treatment, mice were anesthetized with isoflurane, killed by decapitation, trunk blood was collected for measurement of serum IGF-I, and tumors were excised and weighed. Data are presented as means±S.E. Data were evaluated by one way ANOVA and the Student-Newman-Keuls test.

The test system of experiment [3] is IGF-I. Put plainly: DMS-153 human SCLC xenografts: serum IGF-I. The format is in vivo, nude mice. Conditions: 10 μg/day s.c., 6 weeks.
Text: For the measurement of GH and IGF-I levels in the serum, as well as IGF-I and IGF-II concentrations in the cytosol fraction of tumors, blood samples and tumor samples were collected and processed as described (Braczkowski R, Schally A V, Plonowski A, Varga J L, Groot K, Krupa M, Armatis P, Cancer 95: 1735-1745, 2002), hereby incorporated by reference. Briefly, blood samples are centrifuged to separate the serum, tumors are homogenized and centrifuged to separate the cytosol fraction. Serum GH is then measured by the double-antibody RIA method. Before measurement by RIA, IGF-I and IGF-II are extracted from serum and cytosol fractions using an acid-ethanol cryoprecipitation method that eliminates most of the IGF binding proteins, which can interfere with the RIA. IGF-I concentration is measured by RIA using IGF-I as a standard and goat anti-IGF-I antibody (both from DSL Inc., Webster, Tex.). IGF-II concentration is measured by RIA using human recombinant IGF-II (Bachem) as a standard and anti-IGF-II monoclonal antibody (Amano International Enzyme, Troy, Va.).
as §1

In experiment [4] the test system is HT-29 human colon cancer xenografts. Put plainly: HT-29 human colon cancer xenografts in nude mice: tumor growth. It is filed as in vivo. The following applies: 10 μg/day s.c., 62 days. Here is the method: HT-29 human colon cancers were transplanted sc. into male nude mice. 19 days after transplantation, the mice were divided into two groups of 10 animals each. and the treatment was started. Mice in the treatment group received single daily injections of Peptide 67 sc. at a dose of 10 μg/day for 62 days, while the control group was injected with the vehicle solvent. Tumors were measured regularly, and tumor volume was calculated. The mice were sacrificed at the end of experiment and tumor weights were measured.

The mark [5] stands for this setting: 10 μg/day s.c., 6 weeks, vs control.

Marks after values point to notes of the source that are not given here. Square brackets hold non-standard residues; d marks the D form. Peptide text beside a SMILES is read from it. * marks the point of attachment. Phe(4-amidino) = N=C(N)c1ccc(C[C@H](N)C(=O)O)cc1; Phe(4-Cl) = N[C@@H](Cc1ccc(Cl)cc1)C(=O)O; hArg = N=C(N)NCCCC[C@H](N)C(=O)O; Nle = CCCC[C@H](N)C(=O)O; Abu = CC[C@H](N)C(=O)O; PhAc = O=C(Cc1ccccc1)*

Turning to `CCCC[C@H](NC(=O)[C@@H](NC(=O)[C@H](CC(=O)O)NC(=O)[C@H](CCC(N)=O)NC(=O)[C@H](CC(C)C)NC(=O)[C@H](CC(C)C)NC(=O)[C@H](CCCCN)NC(=O)[C@H](CCCNC(=N)N)NC(=O)[C@H](C)NC(=O)[C@H](CO)NC(=O)[C@H](CC(C)C)NC(=O)[C@H](CCC(N)=O)NC(=O)[C@H](CC)NC(=O)[C@H](CC(C)C)NC(=O)[C@@H](NC(=O)[C@H](CCCCN)NC(=O)[C@H](CCCNC(=N)N)NC(=O)[C@H](Cc1ccc(OC)cc1)NC(=O)[C@H](Cc1ccc(C(=N)N)cc1)NC(=O)[C@H](CC(N)=O)NC(=O)[C@@H](NC(=O)[C@H](Cc1ccc(Cl)cc1)NC(=O)[C@@H](NC(=O)[C@H](C)NC(=O)[C@H](CC(=O)O)NC(=O)[C@@H](CCCNC(=N)N)NC(=O)[C@H](Cc1ccc(O)cc1)NC(=O)Cc1ccccc1)[C@@H](C)CC)[C@@H](C)O)C(C)C)[C@@H](C)CC)C(=O)N[C@H](CCCNC(=N)N)C(=O)N[C@@H](CCCCNC(=N)N)C(N)=O` [Peptide 67, [PhAc-Tyr^1, D-Arg^2, Phe(pCl)^6, Amp^9, Tyr(Me)^10, Abu^15, Nle^27, D-Arg^28, Har^29]hGH-RH(1-29)NH2] (PhAc-Y[dR]DAI[Phe(4-Cl)]TN[Phe(4-amidino)]Y(Me)RKVL[Abu]QLSARKLLQDI[Nle][dR][hArg]-NH2), the “Tumor volume (mm^3) Final” value in experiment [1] (10 μg/day s.c., 4 weeks) is 501 ± 35* mm^3. Further, in experiment [1] (10 μg/day s.c., 4 weeks, vs control), the “Tumor volume Final (% inhibition)” value is reported as “(76%)”. Also, the “Tumor volume (mm^3) Initial” value in experiment [1] (at start of treatment) turned out to be 82 ± 10 mm^3. For the same compound, in experiment [2] (10 μg/day s.c., 6 weeks), the “Tumor volume (mm^3) Final” value is 2650 ± 30* mm^3 and the “Tumor weight” value is listed as 1.60 ± 0.19 g. In addition, in experiment [2] (setting [5]), the “Tumor volume Final (% inhibition)” value is “(28%)” and the “Tumor weight (% inhibition)” value was “(31%)”. Further, the “Tumor volume (mm^3) Initial” value in experiment [2] (at start of treatment) was found to be 132 ± 24 mm^3. Besides, in experiment [3], the “Serum IGF-I” value is reported as 117.9 ± 17.2 ng/mL. The “Serum IGF-I (% inhibition)” value in experiment [3] (vs control) is given as “(30%)”. Further, in experiment [4], the “Final tumor volume (mm^3)” value is listed as 1218 ± 320* mm^3 and the “Tumor weight” value is recorded as 1434 ± 405 mg. For the same compound, in experiment [4] (vs control group), the “inhibition in the volumes of HT-29 tumors” value is 56.3% and the “inhibition in the weights of HT-29 tumors” value is on record as 53.9%.

Source of the values: patent US7452865B2, “Antagonistic analogs of GH RH (2003)” (The Administrare's of the Tulane Educational Fund, priority 2004, dated 2008).
